Experimental data as given in patent US8680150B2, “Small molecule hematopoietic growth factor mimetic compounds that activate hematopoietic growth factor receptors” (Ligand Pharmaceuticals, Inc., priority 2009, dated 2014).

System: UT7/EPO Cell line
Experiment: Cell proliferation assay in UT7/EPO cell line (ViaLight Plus)
Type: cell-based, human
Settings: compound at 10 uM, efficacy relative to EPO (100%), UT7/EPO cells expressing endogenous EPO receptor, starved of EPO overnight, 72 hours at 37° C.
Description: The primary testing for the exemplified compounds was performed in UT7/EPO Cell line. UT7/EPO is human leukemia cell line, obtained from Dr. Norio Komatsu (Blood, Vol 82 (2), pp 456-464, 1993). These cells express endogenous EPO receptor and are dependant upon EPO for growth and proliferation. Briefly, the cells were starved of EPO overnight and plated in 96 or 384 well plates. The compounds were added to the cells at 10 uM concentration. The plates were then incubated at 37° C. for 72 hours. The proliferative effect of the compounds was measured by a commercially available kit from Lonza (ViaLight Plus).

Row | Structure (SMILES) | Activity (%) | Activity (%) (10 µM)
1 | O=C(N/N=C/c1ccc2ccccc2c1)c1ccc(O)cc1 [Compound 126, 4-Hydroxybenz(2-naphthylidene)hydrazide] | 3.4 | 
2 | COc1ccc(COc2ccc(C(=O)N/N=C/c3cccc(OC)c3)cc2)cc1 [Compound 152, 4-(4-Methoxybenzyloxy)benz(3-methoxybenzylidene)hydrazide] | 6.9 | 
3 | COc1ccc(/C=N/NC(=O)c2ccc(OCc3ccc(Cl)cc3)cc2)cc1OC [Compound 137, 4-(4-Chlorobenzyloxy)benz(3,4-dimethoxybenzylidene)hydrazide] | 12 | 
4 | COc1cc(/C=N/NC(=O)c2ccc(-c3ccccc3)cc2)ccc1O [Compound 144, 4-Phenylbenz(4-hydroxy-3-methoxybenzylidene)hydrazide] | 15 | 
5 | Cc1cccc(C(=O)N/N=C/c2ccccc2O)c1 [Compound 124, 3-Methylbenz(2-hydroxybenzylidene)hydrazide] | 3.4 | 
6 | COc1cccc(/C=N/NC(=O)c2ccc(NCCO)cc2)c1 [Compound 199, 4-(2-Hydroxyethylamino)benz(3-methoxybenzylidene)hydrazide] | 3.0 | 
7 | CN(C)c1ccc(C(=O)N/N=C/c2cccc(COCc3ccccc3)c2)cc1 [Compound 184, 4-Dimethylaminobenz(3-benzyloxymethylbenzylidene)hydrazide] | 21 | 
8 | COc1cccc(/C=N/NC(=O)c2ccc(OCc3cccc(Cl)c3)cc2)c1 [Compound 153, 4-(3-Chlorobenzyloxy)benz(3-methoxybenzylidene)hydrazide] | 5.3 | 
9 | CN(C)c1ccc(C(=O)N/N=C/c2cccc(/C=C/c3ccccc3)c2)cc1 [Compound 170, 4-Dimethylaminobenz(3-(2E-phenylethenyl)benzylidene)hydrazide] | 4.7 | 
10 | O=C(N/N=C/c1cccc(/C=N/OCc2ccccc2)c1)c1ccc(-n2ccnc2)cc1 [Compound 194, 4-(1-Imidazolyl)benz(3-benzyloxyiminomethylbenzylidene)hydrazide] | 5.2 | 
11 | COc1cc(/C=N/NC(=O)c2ccc(N3CCCC3=O)cc2)ccc1O [Compound 130, 4-(2-Oxopyrrolidino-1-)benz(4-hydroxy-3-methoxybenzylidene)hydrazide] | 20 | 
12 | COc1cccc(/C=N/NC(=O)c2ccc(OCc3ccc(C)cc3)cc2)c1 [Compound 134, 4-(4-Methylbenzyloxy)benz(3-methoxybenzylidene)hydrazide] | 14 | 
13 | CN(C)c1ccc(C(=O)N/N=C/c2cccc(/C=N/OCc3ccccc3)c2)cc1 [Compound 190, 4-Dimethylaminobenz(3-benzyloxyiminomethylbenzylidene)hydrazide] | 20 | 
14 | COc1ccc(O)c(/C=N/NC(=O)c2cc3cc(O)ccc3[nH]2)c1 [Compound 175, 5-Hydroxyindole-2-carboxyl(2-hydroxy-5-methoxybenzylidene)hydrazide] | 4.3 | 
15 | CN(C)c1ccc(C(=O)N/N=C/c2cccc(/C=C/c3ccccc3Cl)c2)cc1 [Compound 185, 4-Dimethylaminobenz(2E-(2-chlorophenyl)ethenylbenzylidene)hydrazide] | 16 | 
16 | Cc1ccccc1/C=C/c1cccc(/C=N/NC(=O)c2ccc(N(C)C)cc2)c1 [Compound 181, 4-Dimethylaminobenz(2E-(2-methylphenyl)ethenylbenzylidene)hydrazide] | 4.2 | 
17 | COc1cccc(/C=N/NC(=O)c2ccc(OCc3ccc4ccccc4c3)cc2)c1 [Compound 157, 4-(2-Naphthylmethoxy)benz(3-methoxybenzylidene)hydrazide] | 9.9 | 
18 | C=Cc1ccc(COc2ccc(C(=O)N/N=C/c3cccc(OC)c3)cc2)cc1 [Compound 156, 4-(4-Vinylbenzyloxy)benz(3-methoxybenzylidene)hydrazide] | 7.9 | 
19 | COc1cccc(/C=N/NC(=O)c2ccc(OCc3ccccc3)cc2)c1 [Compound 149, 4-Benzyloxybenz(3-methoxybenzylidene)hydrazide] | 9.7 | 
20 | COc1ccc(/C=N/NC(=O)c2ccc(N3CCCC3=O)cc2)cc1OC [Compound 132, 4-(2-Oxopyrrolidino-1-)benz(3,4-dimethoxybenzylidene)hydrazide] | 8.7 | 
21 | COc1cccc(/C=N/NC(=O)c2ccc(OCc3cccc(OC)c3)cc2)c1 [Compound 155, 4-(3-Methoxybenzyloxy)benz(3-methoxybenzylidene)hydrazide] | 11 | 
22 | COc1cccc(/C=N/NC(=O)c2ccc(N(C)C)cc2)c1 [Compound 168, 4-Dimethylaminobenz(3-methoxybenzylidene)hydrazide] |  | 11
23 | COc1ccc(O)c(/C=N/NC(=O)c2ccc(-c3ccccc3)cc2)c1 [Compound 151, 4-Phenylbenz(2-hydroxy-5-methoxybenzylidene)hydrazide] | 6.3 | 

Row | Structure (SMILES) | Activity (%) | Activity (%) (10 µM)
24 | COc1ccc(/C=N/NC(=O)c2ccc(N3CCCC3=O)cc2)cc1 [Compound 131, 4-(2-Oxopyrrolidino-1-)benz(4-methoxybenzylidene)hydrazide] | 15 | 
25 | CN(C)c1ccc(C(=O)N/N=C/c2cccc(/C=C/c3cccc(Cl)c3)c2)cc1 [Compound 182, 4-Dimethylaminobenz(2E-(3-chlorophenyl)ethenylbenzylidene)hydrazide] | 11 | 
26 | O=C(N/N=C/c1ccc2[nH]ccc2c1)c1ccc(-c2ccccc2)cc1 [Compound 163, 4-Phenylbenz(5-indolidene)hydrazide] | 23 | 
27 | COc1cccc(/C=N/NC(=O)c2ccc(-c3cnco3)cc2)c1 [Compound 150, 4-(4-Oxazolyl)benz(3-methoxybenzylidene)hydrazide] | 4.5 | 
28 | COc1cc(/C=N/NC(=O)c2ccc(-c3ccccc3)cc2)ccc1F [Compound 159, 4-Phenylbenz(4-fluoro-3-methoxybenzylidene)hydrazide] | 8.9 | 
29 | O=C(N/N=C/c1ccccc1O)c1ccc(N2CCCC2=O)cc1 [Compound 123, 4-(2-Oxopyrrolidino-1-)benz(2-hydroxybenzylidene)hydrazide] | 5.1 | 
30 | CCCCCCCCCCCCCCCCCC(=O)N/N=C/c1cc(OC)ccc1O [Compound 148, Octadecano(2-hydroxy-5-methoxybenzylidene)hydrazide] | 7.1 | 
31 | CN(C)c1ccc(C(=O)N/N=C/c2cccc(N(C)C)c2)cc1 [Compound 177, 4-Dimethylaminobenz(3-dimethylaminobenzylidene)hydrazide] | 9.1 | 
32 | CN(C)c1ccc(/C=N/NC(=O)c2ccc(N3CCCC3=O)cc2)cc1 [Compound 127, 4-(2-Oxopyrrolidino-1-)benz(4-dimethylaminobenzylidene)hydrazide] | 6.8 | 
33 | COc1cc(/C=N/NC(=O)c2ccc(-c3ccccc3)cc2)cc(OC)c1 [Compound 160, 4-Phenylbenz(3,5-dimethoxybenzylidene)hydrazide] | 6.1 | 
34 | Cc1ccc(COCc2cccc(/C=N/NC(=O)c3ccc(N(C)C)cc3)c2)cc1 [Compound 189, 4-Dimethylaminobenz(3-(4-methylbenzyloxy)methylbenzylidene)hydrazide] | 9.1 | 
35 | O=C(N/N=C/c1cccc(/C=C/c2ccccc2Cl)c1)c1ccc(-n2ccnc2)cc1 [Compound 191, 4-(1-Imidazolyl)benz(2E-(2-chlorophenyl)ethenylbenzylidene)hydrazide] | 6.2 | 
36 | COc1ccc(O)c(/C=N/NC(=O)c2ccc(N3CCCC3=O)cc2)c1 [Compound 129, 4-(2-Oxopyrrolidino-1-)benz(2-hydroxy-5-methoxybenzylidene)hydrazide] | 23 | 
37 | C=Cc1cccc(/C=N/NC(=O)c2ccc(-c3ccccc3)cc2)c1 [Compound 164, 4-Phenylbenz(3-vinylbenzylidene)hydrazide] | 11 | 
38 | COCc1cccc(/C=N/NC(=O)c2cc3cc(O)ccc3o2)c1 [Compound 176, 5-Hydroxybenzofuran-2-carboxyl(3-methoxymethylbenzylidene)hydrazide] | 19 | 
39 | C=CCO/N=C/c1cccc(/C=N/NC(=O)c2ccc(N(C)C)cc2)c1 [Compound 192, 4-Dimethylaminobenz(3-allyloxyiminomethylbenzylidene)hydrazide] | 5.3 | 
40 | COc1ccc(/C=N/NC(=O)c2ccc(OCc3ccc(C)cc3)cc2)cc1OC [Compound 138, 4-(4-Methylbenzyloxy)benz(3,4-dimethoxybenzylidene)hydrazide] | 18 | 
41 | COc1cc(/C=N/NC(=O)c2ccc(OCc3ccc(C)cc3)cc2)cc(OC)c1OC [Compound 136, 4-(4-Methylbenzyloxy)benz(3,4,5-trimethoxybenzylidene)hydrazide] | 4.8 | 
42 | COc1cccc(/C=N/NC(=O)c2ccc(N(C)C)cc2)c1 [Compound 139, 4-Dimethylaminobenz(3-methoxybenzylidene)hydrazide] |  | 7.8
43 | COCc1cccc(/C=N/NC(=O)c2ccc(N(C)C)cc2)c1 [Compound 187, 4-Dimethylaminobenz(3-methoxymethylbenzylidene)hydrazide] | 17 | 
44 | CC1=NN(c2ccc3ccccc3n2)C(=O)/C1=N\Nc1ccc(O)cc1 [Compound 108, 4-(4-Hydroxyphenyl)hydrazono-1-(2-quinolino)-3-methyl-5-pyrazolone] | 2.4 | 
45 | COc1ccc(O)c(/C=N/NC(=O)c2cc3cc(OC)ccc3[nH]2)c1 [Compound 172, 5-Methoxyindole-2-carboxyl(2-hydroxy-5-methoxybenzylidene)hydrazide] | 9.8 | 
